From PubChem BioAssay AID2305 (GlaxoSmithKline (GSK), 2010)
pIC50: −log10 of the molar value.

system: P. falciparum 3D7 growth, pLDH absorbance; test: blood-stage malaria parasite growth potency – strain 3D7, dose response (AID 2305)

| Compound | pIC50 |
| --- | --- |
| Cc1ccccc1CCNC(=O)c1ccc(N2CCN(c3ccncc3)CC2)nc1 | 5.86 |
| COc1c(C2CCN(CCN3CCC(CNC(=O)c4ccc(-c5ccc(C#N)cc5)cc4)CC3)CC2)ccc2c1CCCC2 | 6.34 |
| NC(=O)C1CCN(Cc2ccc(-c3cccc(-c4nc5ccc(F)cc5[nH]4)c3)cc2)CC1 | 6.06 |
| CCC(CC)n1cc2c(ccc3nc(N)nc(N)c32)n1 | 7.10 |
| Nc1nccc2ccc(-c3ccc(OCc4ccccc4)cc3)cc12 | 6.66 |
| C=CCn1c(SCC(=O)Nc2cc(C)ccc2OC)nc2sc(C)cc2c1=O | 6.38 |
| Cc1c(CNCCCNc2cc(=O)c3ccccc3[nH]2)sc(/C=N/O)c1Br | 5.97 |
| O=C(NC1CCN(c2ncc(C(F)(F)F)cc2Cl)CC1)c1cccs1 | 6.05 |
| O=C(NCCCCN1CCC(c2ccc3c(c2OCC2CC2)CCCC3)CC1)c1ccc(NC(=O)c2ccc(Cl)cc2)cc1 | 6.17 |
| O=C(/C=C/c1ccc(Cl)c(Cl)c1)NC1CCC(N2CCC(c3c[nH]c4ccccc34)CC2)CC1 (stereo unspecified) | 6.06 |
| O=C(Nc1ccc(Br)cc1)Nc1ccc(Cn2ncc(N3CCCNCC3)c(Cl)c2=O)cc1 | 5.94 |
| O=C(Nc1ccc(C(=O)Nc2cccc(C3=NCCN3)c2)cc1)Nc1ccc(C2=NCCN2)cc1 | 7.00 |
| COc1ccc(-c2ccc(Nc3cccc(S(=O)(=O)CCN4CCC(CCN(C)C)CC4)c3)nc2)cn1 | 5.95 |
| NC(N)=NCCCN(Cc1ccccc1)c1ccccc1 | 6.24 |
| N#Cc1ccc(CN2CCC(Oc3ccc(NC(=O)c4ccco4)cc3Cl)CC2)cc1 | 6.42 |
| O=C(Nc1ccc(OC2CCN(Cc3ccccc3)C2)c(Cl)c1)c1cccs1 (stereo unspecified) | 6.41 |
| O=C(Nc1ccc(N2CCN(Cc3c[nH]c4cc(F)ccc34)CC2)cc1)c1ccccc1-c1ccc(C(F)(F)F)cc1 | 6.00 |
| COc1ccc2nccc(N3CCCN(CCNS(=O)(=O)c4ccc5c(c4)NC(=O)CS5)CC3)c2n1 | 6.09 |
| CCn1ccc2c(N3CCCC3=O)cc(C(=O)N[C@@H](Cc3ccccc3)[C@H](O)CNCc3cccc(OC)c3)cc21 | 6.23 |
| CS(=O)(=O)CCNCc1ccc(-c2ccc3c(Nc4ccc(Cl)cc4F)ccnc3c2)o1 | 6.17 |
| CCCc1cc(=O)oc2cc(OC)c(C(=O)CC(C)C)c(OC)c12 | 6.00 |
| O=C(Nc1cccc(-c2nc3ccccc3[nH]2)c1)c1cccc(NC(=O)c2ccco2)c1 | 6.44 |
| O=C(/C=C/c1ccc(Cl)c(Cl)c1)NCCCCCN1CC[C@H](NC(=O)Nc2ccc(Oc3ccccc3)cc2)C1 | 6.15 |
| Fc1ccc2nc(-c3cccc(-c4ccc(CNCc5cnn(-c6ccccc6)n5)cc4)c3)[nH]c2c1 | 6.04 |

| Compound | pIC50 |
| --- | --- |
| COc1ccc(CNCc2ccccc2)cc1-c1ccc(S(=O)(=O)NCCN2CCCC2)s1 | 6.17 |
| O=C(/C=C/c1ccc(Cl)c(Cl)c1)NCCCCCN1CCC(c2cn[nH]c2-c2ccccc2)CC1 | 5.91 |
| CCNc1cc(C(=O)N[C@@H](Cc2ccccc2)[C@H](O)CNC(C)CCCC(C)C)cc(N2CCCS2(=O)=O)c1 (stereo partly specified) | 6.66 |
| Clc1cccc(-c2nc(Nc3ccnc(-c4ccc(CN5CCOCC5)cc4)c3)c3ccccc3n2)c1 | 6.15 |
| COc1ccc(Nc2ncc3c(-c4cccc(NC(=O)Cc5ccc(O)cc5)c4)c[nH]c3n2)cc1OC | 6.24 |
| COc1ccc(C(=O)Nc2ccc(Nc3nc(C)cc(N(C)C)n3)cc2)c(OC)c1 | 6.06 |
| COc1ccc(Cn2c(N3CCN(S(=O)(=O)c4ccc(OC)cc4)CC3)nc3c2c(=O)n(CC2CC2)c(=O)n3CC2CC2)cc1 | 6.05 |
| COc1ccc(CN2CCC(NCc3cccc(C(F)(F)F)c3)CC2)cc1 | 6.12 |
| O=C(Nc1ccc(C(F)(F)F)cc1)c1ccc(NCCCN2CCCCCC2)c([N+](=O)[O-])c1 | 6.49 |
| Cc1cccc2[nH]c(-c3ccc(-c4cccc(NC(=O)C(C)CN(C)C)c4)cc3)nc12 (stereo unspecified) | 6.19 |
| CCc1nc(N)nc(N)c1CCCOc1ccccc1Cl | 7.00 |
| CN(C)CCNC(=O)N1CCCN(c2ncnc3cc(-c4ccc(Cl)cc4)sc23)CC1 | 5.99 |
| COc1cc2[nH]c(-c3ccc(O)cc3)c(C)c(=O)c2c(OC)c1OC | 6.14 |
| O=C(Nc1ccc(I)cc1)N1CCc2sccc2C1CN1CCCCC1 (stereo unspecified) | 5.92 |
| COc1cc(NC(=O)c2sc(-c3ccc(Cl)cc3)cc2NC(=O)CN2CCCC2)ccc1OCCN1CCCC1 | 6.03 |
| COc1cc2nc(NCCn3nc(C)cc3C)nc(NCCc3ccccc3)c2cc1OC | 6.36 |
| CC(C)C[C@H](NC(=O)c1ccc(OCCN2CCOCC2)cc1)C(=O)N[C@H](/C=N/NC(=O)OC(C)(C)C)CCc1ccccc1 | 6.80 |
| Cc1c(Cl)cccc1NC(=S)NN=Cc1ccccn1 | 6.22 |
| Cc1cc(OCCCN2CCN(CCN3CCOCC3)CC2)ccc1NC(=O)COc1ccc(Cl)cc1C(=O)c1cc(Cl)cc(C#N)c1 | 6.15 |
| Cc1cccc2[nH]c(-c3cccc(-c4cccc(NC(=O)c5cn(C)c(=O)n5C)c4)c3)nc12 | 6.30 |
| COc1ccc(O)c(Cc2cnc3nc(N)[nH]c(=O)c3c2C)c1 | 6.64 |
| CCc1cn2c3c(cc(C(=O)N[C@@H](Cc4ccccc4)[C@H](O)CNCCOC)cc13)N(C)S(=O)(=O)CC2 | 6.02 |
| C[C@@H]1CN(c2cccc3c2nc(-c2cncc(C#N)c2)n3CCNCc2ccccc2)C[C@H](C)O1 | 5.91 |
| Cc1nc(N)nc(N)c1-c1cc(Cl)c(N)c(Cl)c1 | 6.10 |

| Compound | pIC50 |
| --- | --- |
| CC(C)(C)CN1C(=O)C(c2ccccc2)(c2ccccc2)N=C1N | 6.28 |
| CCOC(=O)CC[C@@H](NC(=O)c1ccc(NCc2ccc3ccc4nc(C)[nH]c(=O)c4c3c2)cc1F)C(=O)N[C@@H](Cc1c[nH]c2ccccc12)C(=O)OCC | 5.99 |
| CCCCCCN1CCC(NCc2cccc([N+](=O)[O-])c2)CC1 | 6.17 |
| COc1ccc2nccc([C@@H](O)CN3CCC(NC(=O)CCC(=O)c4cc(C(C)(C)C)ccc4OC)CC3)c2c1 | 6.07 |
| CN1CCC(Oc2ccc(CN3CC[C@H](NC(=O)c4ccc(F)c(F)c4)C3)c3ccccc23)C1 (stereo partly specified) | 5.97 |
| Cc1nc(-c2nc(N3CCC(O)CC3)ncc2-c2ccsc2)sc1C | 6.03 |
| Cc1cc(N2CCN(C)CC2)nc2ccc(NC(=O)Cc3cccc(C(F)(F)F)c3)cc12 | 6.13 |
| COc1ccc(-c2ccc(NC(=O)c3cccc(C#N)c3)cc2)cc1CN1CCN(C)CC1 | 6.15 |
| CC(C)CNCc1cccc(-c2cccc(CN(C(=O)c3cccs3)C3CCN(Cc4ccccc4)CC3)c2)c1 | 6.05 |
| CCOc1cc(C(=O)NCc2cccc(C(F)(F)F)c2)ccc1-c1nc2ccc(Cl)cc2[nH]1 | 6.01 |
| Cc1onc(-c2ccccc2)c1C(=O)Nc1nc(-c2ccccn2)nc2ccsc12 | 6.16 |
| O=C(Nc1ccc2c(c1)CCC2)c1cccc(N2CCN(c3ccncc3)CC2)c1 | 6.01 |
| CCCCNCc1ccc(OCc2cccc(COc3ccc(CNCCCC)cc3I)c2)c(I)c1 | 5.95 |
| CCN(CCCN1CCCCC1)c1cc(C)nc(Nc2cc(C)ccc2C)n1 | 6.18 |
| CCCCCCCCN1CCCN(C(=O)c2cccc(NC(=O)Nc3ccc4ccccc4c3)c2)CC1 | 6.12 |
| COc1ccc(CCN(C)CCOc2ccc(NC(=O)COc3ccc4sc5ccccc5c(=O)c4c3)cc2)cc1OC | 5.96 |
| O=C(Nc1ccc(F)cc1)c1cnc(N2CCN(c3ccncc3)CC2)c(Cl)c1 | 6.13 |
| COc1cccc(Nc2c(C(N)=O)cnc3ccc(-c4ccccc4)cc23)c1 | 6.11 |
| O=C1CCCN1CCCNCc1ccc(-c2ccc(-c3nc4ccc(F)cc4[nH]3)s2)cc1 | 6.05 |
| CC(C)NCc1ccc(-c2cccc(NC(=O)c3cccc(Cl)c3)c2)cc1 | 6.14 |
| Cc1ccccc1C1CCN(C2CCC(NC(=O)/C=C/c3ccc(C#N)cc3)CC2)CC1 (stereo unspecified) | 5.93 |
| Cc1ccc(Nc2nc(C)cc(NC3CCCC3)n2)cc1 | 6.54 |
| O=C(NC1CC1)c1ccc(N2CCOc3ccc(Cl)cc32)s1 | 6.10 |
| O=C1[C@H]2C(c3ccc(Cl)c(Cl)c3)N3CC(OCc4ccccc4)CC3(C(=O)O)[C@H]2C(=O)N1c1ccc(Br)cc1 (stereo partly specified) | 6.47 |

| Compound | pIC50 |
| --- | --- |
| CCc1[nH]nc(C(=O)NC2CCN(CC3(c4ccc(OC)cc4)CCCCC3)CC2)c1C | 6.05 |
| CC(C)(C)c1ccc(NC(=O)c2ccc(CN3CCCN(Cc4cccc(Cl)c4)CC3)cc2)cc1 | 6.01 |
| Cc1ccc(C2(O)C[C@H]3CC[C@@H](C2)N3C)cc1 (stereo partly specified) | 6.21 |
| CC(C)(C)c1ccc(CN2CCC(CNC(=O)c3cc(-c4cccc(Cl)c4)cs3)C2)cc1 (stereo unspecified) | 5.94 |
| Cc1cccc2c(C(=O)NC3CCN(Cc4ccccc4)CC3)cc(-c3cccnc3)nc12 | 5.86 |
| CN1CCc2cc(I)c(O)cc2C1Cc1ccccc1Cl (stereo unspecified) | 6.10 |
| OC1(c2ccc(Cl)c(C(F)(F)F)c2)CCN(CCOC2c3ccccc3CSc3ccc(Cl)cc32)CC1 (stereo unspecified) | 6.10 |
| Cc1cc(O)cc2c(C3CCN(CC4CCN(C(=O)/C=C/c5ccc(Cl)c(Cl)c5)CC4)CC3)c[nH]c12 | 5.96 |
| CCCCCCCN1CC[C@@H](CCC(O)c2ccnc3ccc(OC)cc23)[C@@H](CC)C1 (stereo partly specified) | 6.12 |
| COc1ccc(CCN(Cc2cccs2)C(=O)c2cc3sccc3n2C)cc1OC | 6.46 |
| CC(=O)Nc1nc(N)c2c(ccc3c2ccn3CC(C)C)n1 | 7.15 |
| Nc1c(Cl)cc(C(O)CNCCCCCCCCCc2ccccn2)cc1Cl (stereo unspecified) | 6.07 |
| O=C(Nc1ccc(Cl)cc1)c1ccc(CN2CCCN(Cc3cccc(Cl)c3)CC2)cc1 | 6.08 |
| CC(C)(C)Oc1ccc(CC2NC3(C(=O)N(Cc4ccc(C(C)(C)C)cc4)c4ccccc43)C3C(=O)N(c4ccc(Br)cc4)C(=O)C23)cc1 (stereo unspecified) | 6.14 |
| CCOC(=O)c1cn(CC)c2cc(O[C@H]3CCN(C(=O)OC(C)(C)C)C3)ccc2c1=O | 6.26 |
| Cc1cc(Nc2ccc(C)c(Cl)c2)n2nc(C(F)(F)F)nc2n1 | 7.70 |
| c1ccc2[nH]c(-c3ccc(-c4ccc(CNC5CC5)cc4)s3)nc2c1 | 5.98 |
| CCCCSc1c(CNCCCCCCNCc2ccc3ccccc3c2SCCCC)ccc2ccccc12 | 6.00 |
| Cc1cc(N2CCC(NS(=O)(=O)c3cccc4cccnc34)CC2)nc(Nc2cccc(C#N)c2)n1 | 6.12 |
| FC(F)(F)c1cccc(Nc2nc3nonc3nc2NC2C3CC4CC(C3)CC2C4)c1 (stereo unspecified) | 6.18 |
| CC(=O)N(C)C1CCN(Cc2cccc(-c3ccc(-c4nc5ccc(F)cc5[nH]4)cc3)c2)C1 (stereo unspecified) | 6.02 |
| O=C(Nc1cccc(-c2cccc(-c3nc4ccc(C(F)(F)F)cc4[nH]3)c2)c1)Nc1ccc(F)c(F)c1F | 6.92 |
| CC(=O)Nc1ccc(C(=O)Nc2cccc(-c3ccc(-c4nc5ccc(F)cc5[nH]4)s3)c2)cn1 | 6.64 |
| O=C(N[C@H]1CCN(Cc2ccc(OC3CCN(Cc4ccccc4)CC3)c(Br)c2)C1)c1ccc(Cl)c(Cl)c1 | 6.11 |
